According to ChEMBL document CHEMBL1122772, “Bis(3,5-diisopropylsalicylato)copper(II), a potent radioprotectant with superoxide dismutase mimetic activity” (J Med Chem, 1984):

Columns and labels:
Assay type in all cases: functional, organism-based
Mus musculus [1] = species: Mus musculus; assay: Concentration required for 50% inhibition of superoxide reduction of nitroblue tetrazolium.
Mus musculus [2] = species: Mus musculus; assay: Rate of diffusion-controlled disproportionation of superoxide
Mus musculus [3] = species: Mus musculus; assay: Percent reactivity in disproportionating diffusion controlled disproportionation of superoxide

Substance | Concentration (Mus musculus [1]) [µM] | Rate (Mus musculus [2]) [M⁻¹ s⁻¹] | Reactivity (Mus musculus [3]) [%]
bis(2-Hydroxy-3,5-diisopropyl-benzoic acid)copper(II)(bis(3,5-diisopropylsalicylato)copper(II)) | 2.9 | 2e+09 | 0.7
bis(2-Hydroxy-benzoic acid)copper(II) | 4.6 | 1.6e+09 | 0.65
